Laboratory results reported in US7718653B2, “Pyrimidine derivatives for inhibiting Eph receptors” (AstraZeneca AB, priority 2007, dated 2010).

Target: T1, recombinant EphB4 (Homo sapiens, UniProt P54760)
T1 construct: amino acids 563-987; Swiss-Prot Acc; No. P54760; purchased ProQinase GmbH 0178-0000-3
T1 sequence (P54760 563-987): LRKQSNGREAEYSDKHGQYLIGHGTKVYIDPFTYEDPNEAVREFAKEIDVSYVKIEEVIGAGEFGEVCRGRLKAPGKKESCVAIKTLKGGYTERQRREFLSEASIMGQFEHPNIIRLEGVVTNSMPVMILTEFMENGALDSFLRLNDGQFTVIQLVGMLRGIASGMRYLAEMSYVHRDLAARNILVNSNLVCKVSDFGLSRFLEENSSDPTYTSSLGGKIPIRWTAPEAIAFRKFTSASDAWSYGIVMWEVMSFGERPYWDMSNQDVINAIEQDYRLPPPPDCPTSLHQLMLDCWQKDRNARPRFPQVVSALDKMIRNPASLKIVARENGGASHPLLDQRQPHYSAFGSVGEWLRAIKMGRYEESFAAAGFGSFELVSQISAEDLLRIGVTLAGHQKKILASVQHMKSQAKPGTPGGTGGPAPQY
Assay: In vitro EphB4 enzyme assay (Alphascreen, phosphorylation of biotin-poly-GAT)
Assay type: biochemical
Conditions: method of compound preparation not stated; read-out: IC50 in assay A
Protocol: A) In vitro EphB4 Enzyme Assay
This assay detects inhibitors of EphB4-mediated phosphorylation of a polypeptide substrate using Alphascreen™ luminescence detection technology. Briefly, recombinant EphB4 was incubated with a biotinylated-polypeptide substrate (biotin-poly-GAT) in presence of magnesium-ATP. The reaction was stopped by addition of EDTA, together with streptavidin-coated donor beads which bind the biotin-substrate containing any phosphorylated tyrosine residues. Anti-phosphotyrosine antibodies present on acceptor beads bind to phosphorylated substrate, thus bringing the donor & acceptor beads into close proximity. Subsequent excitation of the donor beads at 680 nm generated singlet oxygen species that interact with a chemiluminescer on the acceptor beads, leading to light emission at 520-620 nm. The signal intensity is directly proportional to the level of substrate phosphorylation and thus inhibition is measured by a decrease in signal.
Aqueous Compound Preparation:
Acoustic Compound Preparation:
To ensure that each well contained a total of 120 nl DMSO the wells were all backfilled as required. […] The test range of compounds was 100× the required final concentration.
Assay plates were then incubated at room temperature for 1 hour.
For assays using compounds prepared via acoustic dispensing, the assay mix was adjusted such that the final assay volume of 12 ul contained the same concentration of reagent as 10 ul of assay mix used when aqueous compounds were tested.
The plates were sealed under natural lighting conditions, wrapped in aluminium foil and incubated in the dark for a further 20 hours.
The resulting assay signal was determined on the Perkin Elmer EnVision plate reader. The minimum value was subtracted from all values, and the signal plotted against compound concentration to generate IC50 data. The method used to generate the compound dilutions was recorded with the IC50 value in the database.

c1cc(Nc2ccnc(Nc3cc(N4CCOCC4)nc(N4CCOCC4)c3)n2)c2cn[nH]c2c1 [Example 3, N2-(2,6-dimorpholinopyridin-4-yl)-N4-(1H-indazol-4-yl)pyrimidine-2,4-diamine]
IC50: 243 nM
